PMC6214665 (Bioorganic & medicinal chemistry letters, 2017)
pEC50: −log10 of the molar value.

Key:
[1] = MRC5 cell proliferation counterscreen; format: cell-based; details: human, MRC5 cells, MRC5 EC50, cytotoxicity, human cell line
T. brucei = T. brucei cell proliferation assay; format: cell-based, Trypanosoma brucei
T. cruzi = T. cruzi cell proliferation assay; format: cell-based; details: Trypanosoma cruzi, read-out: T. cruzi EC50, mean ± SD; n = 4

Row | Structure (SMILES) | pEC50 [1] | also measured
1 | O=c1nc(-c2ccccc2)c2cc(-c3ccncc3)ccc2[nH]1 [Compound 1] | < 4.30 | 
2 | Cc1cc(-c2ccc3[nH]c(=O)nc(-c4ccccc4)c3c2)ccn1 [Compound 5] | < 4.30 | fold loss of potency in T. brucei assay (T. brucei; relative to 1): < 3 fold
3 | O=c1nc(-c2ccccc2)c2cc(-c3cccnc3)ccc2[nH]1 [Compound 6] | < 4.30 | 
4 | Cc1ccc(-c2ccc3[nH]c(=O)nc(-c4ccccc4)c3c2)cn1 [Compound 7] | < 4.30 | 
5 | Cc1ccncc1-c1ccc2[nH]c(=O)nc(-c3ccccc3)c2c1 [Compound 8] | < 4.30 | pEC50 (T. cruzi): > 5.00
6 | Cc1cncc(-c2ccc3[nH]c(=O)nc(-c4ccccc4)c3c2)c1 [Compound 9] | < 4.30 | pEC50 (T. cruzi): > 5.00
7 | O=c1nc(-c2ccccc2)c2cc(-c3ccc(C(F)(F)F)nc3)ccc2[nH]1 [Compound 10] | < 4.30 | 
8 | CN(C)c1ccc(-c2ccc3[nH]c(=O)nc(-c4ccccc4)c3c2)cn1 [Compound 11] | < 4.30 | 
9 | O=c1nc(-c2ccccc2)c2cc(-c3ccc(N4CCCC4)nc3)ccc2[nH]1 [Compound 12] | < 4.30 | pEC50 (T. cruzi): > 5.00
10 | O=c1nc(-c2ccccc2)c2cc(-c3cnc4ccccc4c3)ccc2[nH]1 [Compound 13] | < 4.30 | pEC50 (T. cruzi): > 5.00
11 | O=c1nc(-c2ccccc2)c2cc(-c3ccccc3)ccc2[nH]1 [Compound 14] | < 4.30 | fold loss of potency in T. brucei assay (T. brucei; relative to 1): ~ 2.5 fold
12 | O=c1nc(-c2ccccc2)c2cc(-c3ccccc3F)ccc2[nH]1 [Compound 15] | < 4.30 | pEC50 (T. cruzi): > 5.00
13 | O=c1nc(-c2ccccc2)c2cc(-c3cccc(F)c3)ccc2[nH]1 [Compound 16] | < 4.30 | pEC50 (T. cruzi): > 5.00
14 | O=c1nc(-c2ccccc2)c2cc(-c3ccc(F)cc3)ccc2[nH]1 [Compound 17] | < 4.30 | pEC50 (T. cruzi): > 5.00
15 | N#Cc1ccc(-c2ccc3[nH]c(=O)nc(-c4ccccc4)c3c2)cc1 [Compound 18] | < 4.30 | 
16 | CNC(=O)c1cccc(-c2ccc3[nH]c(=O)nc(-c4ccccc4)c3c2)c1 [Compound 19] | < 4.30 | 
17 | O=c1nc(-c2ccccc2)c2cc(-c3cccc(N4CCOCC4)c3)ccc2[nH]1 [Compound 20] | < 4.30 | 
18 | O=c1nc(-c2ccccc2)c2cc(-c3ccc(N4CCOCC4)cc3)ccc2[nH]1 [Compound 21] |  | pEC50 (T. cruzi): > 5.00
19 | O=c1nc(-c2ccccc2)c2cc(-c3cncnc3)ccc2[nH]1 [Compound 22] | < 4.30 | 
20 | Cc1noc(C)c1-c1ccc2[nH]c(=O)nc(-c3ccccc3)c2c1 [Compound 23] | < 4.30 | 

Row | Structure (SMILES) | pEC50 [1] | also measured
21 | O=c1nc(-c2ccccc2)c2cc(-c3cc[nH]n3)ccc2[nH]1 [Compound 24] | < 4.30 | 
22 | O=c1nc(-c2ccccc2)c2cc(-c3cn[nH]c3)ccc2[nH]1 [Compound 25] |  | pEC50 (T. cruzi): > 5.00
23 | Cn1cc(-c2ccc3[nH]c(=O)nc(-c4ccccc4)c3c2)cn1 [Compound 26] | < 4.30 | 
24 | Cn1nccc1-c1ccc2[nH]c(=O)nc(-c3ccccc3)c2c1 [Compound 27] | < 4.30 | 
25 | O=c1nc(-c2ccccc2)c2ccc(-c3ccncc3)cc2[nH]1 [Compound 28] | < 4.30 | 
26 | O=c1nc(-c2ccccc2)c2ccc(-c3cccnc3)cc2[nH]1 [Compound 29] | < 4.30 | 
27 | O=c1nc(-c2ccccc2)c2ccc(-c3cncnc3)cc2[nH]1 [Compound 30] | < 4.30 | 
28 | O=c1nc(-c2ccccc2)c2ccc(-c3cccc(N4CCOCC4)c3)cc2[nH]1 [Compound 31] | < 4.30 | 
29 | O=c1nc(-c2ccccc2)c2ccc(-c3ccc(F)cc3)cc2[nH]1 [Compound 32] | < 4.30 | 
30 | Cn1ccc(-c2cccc3[nH]c(=O)nc(-c4ccccc4)c23)n1 [Compound 33] | < 4.30 | 
31 | N#Cc1ccc(-c2cccc3[nH]c(=O)nc(-c4ccccc4)c23)cc1 [Compound 34] | < 4.30 | 
32 | Cc1ccc2[nH]c(=O)nc(-c3ccccc3)c2c1 [Compound 35] | < 4.30 | 
33 | CN1CCN(c2ccc3[nH]c(=O)nc(-c4ccccc4)c3c2)CC1 [Compound 36] | < 4.30 | 
34 | O=c1nc(-c2ccccc2)c2cc(N3CCNCC3)ccc2[nH]1 [Compound 37] | < 4.60 | 
35 | O=c1nc(-c2ccccc2)c2cc(N3CCOCC3)ccc2[nH]1 [Compound 38] | < 4.30 | 
36 | Cc1ccccc1-c1nc(=O)[nH]c2ccc(-c3cc[nH]n3)cc12 [Compound 39] | < 4.30 | pEC50 (T. cruzi): > 5.00
37 | COc1ccccc1-c1nc(=O)[nH]c2ccc(-c3cc[nH]n3)cc12 [Compound 40] | < 4.30 | 
38 | O=c1nc(C2CCCCC2)c2cc(-c3cc[nH]n3)ccc2[nH]1 [Compound 41] | < 4.30 | 
39 | O=c1nc(C2CCC2)c2cc(-c3cc[nH]n3)ccc2[nH]1 [Compound 42] | < 4.30 | fold loss of potency in T. brucei assay (T. brucei; relative to C4-phenyl analog 24): ~6 fold
